Columns and labels:
[1] = Aqueous stability at various pH values, ambient temperature (HPLC); assay type: physicochemical; settings: for GLN (glutamine) in glutamine solution / PGA (pyroglutamic acid) in glutamine solution: pH 6.0, 1 mg/mL
Method: HPLC analysis was conducted using an Inertsil® C8, 5 micrometer, 4.6×250 mm column (obtained from Keystone Scientific, Inc., Bellefonte, Pa.). The mobile phase was water adjusted to pH 2.2 with HCl (isocratic at 1 mL/minute). The injection volume was 10 microliters. Ultraviolet detection was at 214 nm. In order to test the stability of N-acetyl-L-glutamine in aqueous solutions at various pH values, the following procedure was followed. Aqueous solutions of N-acetyl-L-glutamine were prepared in 1 pH unit increments from pH 2.0 to 8.0. The pH of the solutions was adjusted with either hydrochloric acid or sodium hydroxide, as needed, just prior to final dilution (final concentration=1 mg/mL or 5.3 mM N-acetyl-L-glutamine). A single solution of glutamine was not pH adjusted (measured pH=6.0) and was prepared at 1 mg/mL or 6.8 mM glutamine. All solutions were sterile-filtered (Millipore Millex®-GS, 25 mm, 0.22 micrometer pore size, sterile) into autosampler vials and capped for storage at ambient temperature (17-25° C.). N-acetyl-L-glutamine samples were assessed by HPLC at various time points, from 1 to 180 days. The glutamine sample was assessed by HPLC at similar time points, from 1 to 45 days.

[2] = Aqueous N-acetyl-L-glutamine and glutamine heat stability at 100° C. (HPLC); assay type: physicochemical; settings: for Stability during incubation at 100° C. (in words): aqueous solution, 2 hour incubation at 100° C.
Method: In order to test the stability of aqueous N-acetyl-glutamine upon heating, the following procedure was followed. Aqueous solutions of N-acetyl-L-glutamine (obtained from Sigma, catalog no. A-9125) and glutamine (obtained from Aldrich, catalog no. G-320-2) at approximately 1 mg/mL (5.3 mM and 6.8 mM, respectively) were prepared without pH adjustment. The pH of the resulting N-acetyl-L-glutamine solution was 2.9 and the pH of the glutamine solution was 6.0. The solutions were heated at 100° C. using a Reacti-Therm™ stirring heat block with sealed 4 mL vessels, one for each time point: 15 minutes, 30 minutes, 1 hour and 2 hours. The samples were removed from the heat block and immediately placed into ice until cool. An aliquot of each sample was filtered through 0.45 micrometer filters (Millipore Millex®-HV, 25 mm) for assessment by HPLC. HPLC analysis was conducted using an Inertsil® C8, 5 micrometer, 4.6×250 mm column (obtained from Keystone Scientific, Inc., Bellefonte, Pa.). The mobile phase was water adjusted to pH 2.2 with HCl (isocratic at 1 mL/minute). The injection volume was 10 microliters. Ultraviolet detection was at 214 nm.

[3] = approx. 1 mg/mL, pH 6.0, 100° C., 30 min
[4] = approx. 1 mg/mL, pH 6.0, 100° C., 60 min
[5] = approx. 1 mg/mL, pH 6.0, 100° C., 120 min
[6] = pH 3.0, ambient temperature, 6 months

Question: For `NC(=O)CC[C@H](N)C(=O)O` [Glutamine, glutamine], which “GLN (glutamine) in glutamine solution” value ([1]; ambient temperature, 2 days) is on record?
Answer: 100.0 height percent

Question: What about the “PGA (pyroglutamic acid) in glutamine solution” value (“PGA … in glutamine solution” for short) ([1]; ambient temperature, 2 days) of the same compound?
Answer: none detected

Question: What about the “GLN (glutamine) in glutamine solution” value ([1]; ambient temperature, 3 days) of the same compound?
Answer: 99.8 height percent

Question: What about the “PGA … in glutamine solution” value ([1]; ambient temperature, 3 days) of the same compound?
Answer: 0.2 height percent

Question: And the “GLN (glutamine) in glutamine solution” value ([1]; ambient temperature, 7 days)?
Answer: 99.5 height percent

Question: And the “PGA … in glutamine solution” value ([1]; ambient temperature, 7 days)?
Answer: 0.5 height percent

Question: What about the “GLN (glutamine) in glutamine solution” value ([1]; ambient temperature, 15 days) of the same compound?
Answer: 99.0 height percent

Question: What about the “PGA … in glutamine solution” value ([1]; ambient temperature, 15 days) of the same compound?
Answer: 1.0 height percent

Question: And the “GLN (glutamine) in glutamine solution” value ([1]; ambient temperature, 30 days)?
Answer: 98.1 height percent

Question: And the “PGA … in glutamine solution” value ([1]; ambient temperature, 30 days)?
Answer: 1.9 height percent

Question: And the “GLN (glutamine) in glutamine solution” value ([1]; ambient temperature, 45 days)?
Answer: 96.7 height percent

Question: What about the “PGA … in glutamine solution” value ([1]; ambient temperature, 45 days) of the same compound?
Answer: 3.3 height percent

Question: And the “GLN (glutamine) in glutamine solution” value ([2]; approx. 1 mg/mL (6.8 mM), pH 6.0, 100° C., 0 min)?
Answer: 100.0 height %

Question: What about the “PGA … in glutamine solution” value ([2]; approx. 1 mg/mL, pH 6.0, 100° C., 0 min) of the same compound?
Answer: none detected

Question: What about the “GLN (glutamine) in glutamine solution” value [2, 3] of the same compound?
Answer: 90.2 height %

Question: What about the “PGA … in glutamine solution” value [2, 3] of the same compound?
Answer: 9.8 height %

Question: What about the “GLN (glutamine) in glutamine solution” value [2, 4] of the same compound?
Answer: 80.0 height %

Question: And the “PGA … in glutamine solution” value [2, 4]?
Answer: 20.0 height %

Question: What about the “GLN (glutamine) in glutamine solution” value [2, 5] of the same compound?
Answer: 53.6 height %

Question: What about the “GLU (glutamate) in glutamine solution” value [2, 5] of the same compound?
Answer: 10.6 height %

Question: What about the “PGA … in glutamine solution” value [2, 5] of the same compound?
Answer: 35.8 height %

Question: And the “Stability during incubation at 100° C. (in words)” value [2]?
Answer: not stable

Question: For `CC(=O)N[C@@H](CCC(N)=O)C(=O)O` [N-acetyl-L-glutamine], which “Degradation of N-acetyl-L-glutamine” value ([1]; 1 mg/mL, all pH values (2.0 to 8.0), ambient temperature, through 7 days) is on record?
Answer: no degradation

Question: And the N-acetyl-L-glutamine remaining ([1]; pH 2.0, ambient temperature, 6 months)?
Answer: 55.7%

Question: And the N-acetyl-L-glutamine remaining ([1]; pH 2.0, ambient temperature, 15 days)?
Answer: 97.0%

Question: And the N-acetyl-L-glutamine remaining ([1]; pH 3.0, ambient temperature, 4 months)?
Answer: 94.2%

Question: And the N-acetyl-L-glutamine remaining [1, 6]?
Answer: 90.4%

Question: And the “N-acetyl-glutamic acid and 2,6-dioxopiperidinylacetamide (approximately equal levels)” value [1, 6]?
Answer: about 5%

Question: What about the “N-acetyl-glutamic acid and 2,6-dioxopiperidinylacetamide (approximately equal levels)” value ([1]; pH 3.0, ambient temperature, 15 days) of the same compound?
Answer: about 0.15%

Question: And the “N-acetyl-glutamic acid and 2,6-dioxopiperidinylacetamide (approximately equal levels)” value ([1]; pH 3.0, ambient temperature, 30 days)?
Answer: about 1%

Question: What about the N-acetyl-L-glutamine remaining ([1]; pH 3.0, ambient temperature, through 90 days) of the same compound?
Answer: > 95%

Question: What about the N-acetyl-L-glutamine remaining ([1]; pH 4.0, ambient temperature, six months) of the same compound?
Answer: 97.9%

Question: What about the N-acetyl-L-glutamine remaining ([1]; pH 5.0 to 8.0, ambient temperature, 6 months) of the same compound?
Answer: greater than 99.6%

Question: What about the “NAQ (N-acetyl-L-glutamine) in N-acetyl-L-glutamine solution” value (shortened to “NAQ (N-acetyl-L-glutamine)”) ([2]; approx. 1 mg/mL (5.3 mM), pH 2.9, 100° C., 0 min) of the same compound?
Answer: 99.7 area %

Question: What about the “NAQ (N-acetyl-L-glutamine)” value ([2]; approx. 1 mg/mL, pH 2.9, 100° C., 30 min) of the same compound?
Answer: 98.1 area %

Question: What about the “NAQ (N-acetyl-L-glutamine)” value ([2]; approx. 1 mg/mL, pH 2.9, 100° C., 60 min) of the same compound?
Answer: 96.9 area %

Question: What about the “NAQ (N-acetyl-L-glutamine)” value ([2]; approx. 1 mg/mL, pH 2.9, 100° C., 120 min) of the same compound?
Answer: 93.4 area %

Question: And the “Stability during incubation at 100° C. (in words)” value [2]?
Answer: much more stable than glutamine

Question: What about the “NAE (N-acetyl-L-glutamic acid) in N-acetyl-L-glutamine solution” value (“NAE (N-acetyl-L-glutamic acid)” below) ([2]; pH 2.9, 100° C., 0 min) of the same compound?
Answer: 0.3 area %

Question: And the “2,6-DPA (2,6-dioxopiperidinylacetamide) in N-acetyl-L-glutamine solution” value (from here on “2,6-DPA (2,6-dioxopiperidinylacetamide)”) ([2]; pH 2.9, 100° C., 30 min)?
Answer: 0.6 area %

Question: What about the “NAE (N-acetyl-L-glutamic acid)” value ([2]; pH 2.9, 100° C., 30 min) of the same compound?
Answer: 1.2 area %

Question: And the “2,6-DPA (2,6-dioxopiperidinylacetamide)” value ([2]; pH 2.9, 100° C., 60 min)?
Answer: 1.3 area %

Question: And the “NAE (N-acetyl-L-glutamic acid)” value ([2]; pH 2.9, 100° C., 60 min)?
Answer: 1.8 area %

Question: What about the “2,6-DPA (2,6-dioxopiperidinylacetamide)” value ([2]; pH 2.9, 100° C., 120 min) of the same compound?
Answer: 2.7 area %

Question: What about the “NAE (N-acetyl-L-glutamic acid)” value ([2]; pH 2.9, 100° C., 120 min) of the same compound?
Answer: 3.7 area %

Question: What about the “PGA (pyroglutamic acid) in N-acetyl-L-glutamine solution” value ([2]; pH 2.9, 100° C., 120 min) of the same compound?
Answer: 0.2 area %

From patent publication US20030134851A1, “Methods and compositions for providing glutamine” (priority 2001, published 2003)
